According to patent publication US20190077774A1, “PEROXISOME PROLIFERATOR-ACTIVATED RECEPTOR AGONISTS” (City of Hope, priority 2017, published 2019):

Columns and labels:
Type in all cases: in vivo
[1] = Blood glucose in treated mice; conditions: after 4 days (FIG. 16)
From the text: FIG. 16. Enhanced PPARα expression and/or activity (particularly in concert with PGC-1α) is expected to increase blood glucose by upregulating gluconeogenic enzymes like PEPCK.
(§1) Next, we would like to investigate the therapeutic potential of DY121 to see if it could be candidate for treating NAFLD/NASH. Note that the pathogenesis of NASH has not yet been fully elucidated so far; however, the ‘two-hit’ theory is widely accepted. The first hit is the accumulation of fatty acids in the liver to cause steatosis. […] The newly produced PPARα agonist DY121 and its analogs, as well as WY100=WY14643 and GW3 (GW7647), were evaluated in C57Bl/6J female mice for their ability to alter serum triglyceride, liver gene expression, and glucose. Fibric acid derivatives (100 mg/kg/day) was used as a control, WY100 (WY14, 643, 100 mg/kg/day), GW3 (GW7647-positive control, 3 mg/kg/day), DY121 (˜3 mg/kg/day), respectively. DY series compounds and controls administered once to C57Bl/6J female mice at 8 weeks of age. Mice were treated at 3 mg/kg for all compounds except WY14643 (100 mg/kg).

[2] = test system: PPARα target genes in the liver; assay: Liver gene expression of PPARα targets in treated mice (RT-qPCR); conditions: for Cyp4A3 expression: chronic treatment (FIG. 13); for ACADM expression: time course (FIG. 18)
From the text: FIG. 6. […] Data in same order as triglyceride suppression (FIG. 5). apo CIII and LPL expression inversely correlate with triglyceride suppression for many, but not all, compounds. ACOX1 and Cyp4A3 expression correlate with triglyceride suppression for many, but not all, compounds.
The following oligonucleotide primers were used to amplify insertion sequences: for PPARα, FW-5′-[…]-3′ (SEQ ID NO:1) and Rev-5′-[…]-3′ (SEQ ID NO:2); for RXRα, FW-5′ […]-3′ (SEQ ID NO:3) and Rev-5′-[…]-3′ (SEQ ID NO:4). It has been well established that PPARα agonists fibrates reduce plasma triglycerides largely by inducing hepatic PPARα-mediated transcription of key proteins in hepatic long-chain fatty acid […], such as CPT1 (carnitine palmitoyltransferase-1). DY121 promoted the expression of PPARα, CPT1, and LPL involved in free fatty acid β-oxidation. The mRNA expressions of the PPARα-regulated genes CPT-Ia and ACADM were measured by real-time quantitative-PCR (RT-qPCR). […] A structural specificity of DY121 may be responsible for this regulation. PPARα is predominantly expressed in liver. PPARα modulates fatty acid catabolism in the liver. We next measured the mRNA expression of PPARα target genes in the liver. PPARα agonists exert their actions and attributed to the activation of PPARα which in turn effects an increase in LPL (lipoprotein lipase) gene expression and transrepression of apoC-III (apolipoprotein C-III). Activation of PPARα by its modulators can increase PPARα levels and activate PPARα pathways, leading to increased fatty-acid oxidation and reduction of oxidative stress. DY121 and its analogs induced the expression of PPARα-regulated genes involved in lipid, glucose, and cholesterol metabolism, such as ACOX1 (acyl-CoA oxidase) and Cyp4A3 (cytochrome P450 gene subfamily). Members of the CYP4A gene subfamily catalyze the oxygenation of biologically important fatty acids.
as §1, with “DY series compounds and controls administered once to C57Bl/6J female mice at 8 weeks of age. Mice were treated at 3 mg/kg for all compounds except WY14643 (100 mg/kg).” left out

C57Bl/6J female mice = assay: Serum triglyceride and lipid effects in C57Bl/6J female mice; conditions: 7 day period (FIG. 10)
[3] = Body weight and food intake of treated mice; conditions: time course over 7 days (FIG. 9)
Protocol: as §1

CC(C)(Sc1ccc(CCN(CCCCC2CCCCC2)C(=O)NC2CCCCC2)cc1)C(=O)O [GW7647, reference compound]
glucose [1]: increased after 4 days | liver CPT-Ia expression ([2]; chronic (>3 d) treatment (FIG. 17)): upregulated | Cyp4A3 expression ([2]; liver): consistently | ACADM expression [2]: upregulates

Cc1cccc(Nc2cc(Cl)nc(SCC(=O)O)n2)c1C [WY14643, reference compound]
glucose [1]: increased after 4 days | triglycerides, chronic treatment (C57Bl/6J female mice): suppressed triglycerides over the entire 7 day period | weight [3]: caused acute weight loss | Cyp4A3 expression ([2]; liver): most greatly | apoCIII expression ([2]; liver, chronic treatment up to 7 days (FIG. 11)): suppressed apoCIII only after 7 days treatment | ACADM expression [2]: upregulates
